Assay results reported in ChEMBL document CHEMBL3885861, “Open TG-GATES”.

Species on record: Rattus norvegicus
Test: Open TG-GATES - Regimen: Daily Repeat
Format: toxicity, organism-based, Sprague-Dawley
Set-up: regimen Daily Repeat, gender Male, age 6 weeks
Settings: in vivo, po, route gavage; for Bas / Eos / Fbg / Hb / Ht / MCHC / MCV / Mono / Neu / Plat / RBC / Ret / WBC: tissue Blood; for KIDNEY_L / KIDNEY_R / KIDNEY_TOTAL: tissue Kidney; for LIVER: tissue Liver; for ALP / AST / BUN / CRE / DBIL / GLC / K / LDH / Na / PL / RALB / TBIL / TC / TG / TP / gamma-GTP / IP: tissue Plasma
[1] = 0 mg/kg, 72 h, dose level Control, time 3 day
[2] = 0 mg/kg, […], dose level Control, time 7 day
[3] = 0 mg/kg, […], dose level Control, time 14 day
[4] = 0 mg/kg, […], dose level Control, time 28 day
[5] = 20 mg/kg, 72 h, dose level Low, time 3 day
[6] = 20 mg/kg, […], dose level Low, time 7 day
[7] = 20 mg/kg, […], dose level Low, time 14 day
[8] = 20 mg/kg, […], dose level Low, time 28 day

CO[C@H]1/C=C/O[C@@]2(C)Oc3c(C)c(O)c4c(O)c(c(/C=N/N5CCN(C)CC5)c(O)c4c3C2=O)NC(=O)/C(C)=C\C=C\[C@H](C)[C@H](O)[C@@H](C)[C@@H](O)[C@@H](C)[C@H](OC(C)=O)[C@@H]1C [RIFAMPIN]
TERMINAL_BW [1]: 242.1 g | Bas [1]: 0% | Eos [1]: 1% | Fbg [1]: 239 mg/dL | Hb [1]: 13.9 g/dL | Ht [1]: 42% | MCHC [1]: 33.1% | MCV [1]: 63.9 fL | Mono [1]: 7.2% | Neu [1]: 13.8% | Plat [1]: 126 x10_4/uL | RBC [1]: 657.6 x10_4/ul | Ret [1]: 6.4% | WBC [1]: 129.1 x10_2/uL | KIDNEY_L [1]: 1 g | KIDNEY_R [1]: 1 g | KIDNEY_TOTAL [1]: 2 g | LIVER [1]: 12.4 g | ALP [1]: 966.4 IU/L | AST [1]: 62.4 IU/L | BUN [1]: 19 mg/dL | CRE [1]: 0.6 mg/dL | DBIL [1]: 0.004 mg/dL | GLC [1]: 199.2 mg/dL | K [1]: 5 meq/L | LDH [1]: 110.6 IU/L | Na [1]: 139.8 meq/L | PL [1]: 157 mg/dL | RALB [1]: 3.7 g/dL | TBIL [1]: 0.3 mg/dL | TC [1]: 83.8 mg/dL | TG [1]: 112.8 mg/dL | TP [1]: 6.1 g/dL | gamma-GTP [1]: 2 IU/L | TERMINAL_BW [2]: 275.2 g | TERMINAL_BW [3]: 316.4 g | TERMINAL_BW [4]: 390.1 g | Bas [2]: 0% | Eos [2]: 0% | Fbg [2]: 231.8 mg/dL | Hb [2]: 14.1 g/dL | Ht [2]: 42.8% | MCHC [2]: 33.1% | MCV [2]: 63.2 fL | Mono [2]: 6.2% | Neu [2]: 13.6% | Plat [2]: 107.2 x10_4/uL | RBC [2]: 677.2 x10_4/ul | Ret [2]: 5.8% | WBC [2]: 122.2 x10_2/uL | Bas [3]: 0% | Eos [3]: 0.8% | Fbg [3]: 235.6 mg/dL | Hb [3]: 15 g/dL | Ht [3]: 45% | MCV [3]: 59.6 fL | Mono [3]: 6% | Neu [3]: 11.8% | Plat [3]: 112.5 x10_4/uL | RBC [3]: 754.8 x10_4/ul | Ret [3]: 3.5% | WBC [3]: 153.6 x10_2/uL | Bas [4]: 0% | Eos [4]: 0.8% | Hb [4]: 15.7 g/dL | Ht [4]: 47% | MCHC [4]: 33.4% | MCV [4]: 58.9 fL | Mono [4]: 3% | Neu [4]: 12.4% | RBC [4]: 799.6 x10_4/ul | Ret [4]: 2.2% | KIDNEY_L [2]: 1.1 g | KIDNEY_R [2]: 1.1 g | KIDNEY_TOTAL [2]: 2.3 g | KIDNEY_L [3]: 1.2 g | KIDNEY_R [3]: 1.2 g | KIDNEY_TOTAL [3]: 2.4 g | KIDNEY_L [4]: 1.4 g | KIDNEY_R [4]: 1.4 g | KIDNEY_TOTAL [4]: 2.7 g | LIVER [2]: 13.1 g | LIVER [3]: 13.9 g | LIVER [4]: 16 g | ALP [2]: 827 IU/L | AST [2]: 68 IU/L | BUN [2]: 17.8 mg/dL | CRE [2]: 0.6 mg/dL | DBIL [2]: 0.004 mg/dL | GLC [2]: 198.6 mg/dL | IP [2]: 8.3 mg/dL | K [2]: 4.9 meq/L | LDH [2]: 108.4 IU/L | Na [2]: 140.6 meq/L | PL [2]: 150 mg/dL | RALB [2]: 3.9 g/dL | TBIL [2]: 0.3 mg/dL | TC [2]: 74.6 mg/dL | TG [2]: 132.6 mg/dL | TP [2]: 6.1 g/dL | gamma-GTP [2]: 1.8 IU/L | ALP [3]: 668.4 IU/L | AST [3]: 55.2 IU/L | BUN [3]: 18.2 mg/dL | CRE [3]: 0.6 mg/dL | DBIL [3]: 0.066 mg/dL | GLC [3]: 202.8 mg/dL | IP [3]: 7.9 mg/dL | K [3]: 5 meq/L | LDH [3]: 78.4 IU/L | Na [3]: 139.6 meq/L | PL [3]: 154.2 mg/dL | RALB [3]: 3.9 g/dL | TBIL [3]: 0.3 mg/dL | TC [3]: 68.6 mg/dL | TG [3]: 205.8 mg/dL | TP [3]: 6.3 g/dL | gamma-GTP [3]: 1.4 IU/L | ALP [4]: 557.2 IU/L | AST [4]: 56.4 IU/L | BUN [4]: 20.2 mg/dL | CRE [4]: 0.6 mg/dL | DBIL [4]: 0.014 mg/dL | GLC [4]: 179.8 mg/dL | IP [4]: 7.2 mg/dL | K [4]: 4.9 meq/L | LDH [4]: 77.2 IU/L | Na [4]: 140.6 meq/L | PL [4]: 157.4 mg/dL | RALB [4]: 4 g/dL | TBIL [4]: 0.3 mg/dL | TC [4]: 79.6 mg/dL | TG [4]: 165 mg/dL | TP [4]: 6.3 g/dL | gamma-GTP [4]: 0.8 IU/L | TERMINAL_BW [5]: 234.9 g | Bas [5]: 0% | Eos [5]: 0.8% | Fbg [5]: 239.4 mg/dL | Hb [5]: 14 g/dL | Ht [5]: 42.3% | MCHC [5]: 33% | MCV [5]: 62.8 fL | Mono [5]: 8% | Neu [5]: 7.2% | Plat [5]: 125.9 x10_4/uL | RBC [5]: 673.8 x10_4/ul | Ret [5]: 5.5% | WBC [5]: 119.2 x10_2/uL | KIDNEY_L [5]: 1 g | KIDNEY_R [5]: 1 g | KIDNEY_TOTAL [5]: 2 g | LIVER [5]: 10.7 g | ALP [5]: 787.6 IU/L | AST [5]: 66.8 IU/L | BUN [5]: 16 mg/dL | CRE [5]: 0.5 mg/dL | DBIL [5]: 0.002 mg/dL | GLC [5]: 194.8 mg/dL | IP [5]: 8.8 mg/dL | K [5]: 4.6 meq/L | LDH [5]: 113.2 IU/L | Na [5]: 139.4 meq/L | RALB [5]: 3.6 g/dL | TBIL [5]: 0.3 mg/dL | TC [5]: 73.4 mg/dL | TG [5]: 66 mg/dL | TP [5]: 5.8 g/dL | gamma-GTP [5]: 1.8 IU/L | TERMINAL_BW [6]: 264.5 g | TERMINAL_BW [7]: 308 g | TERMINAL_BW [8]: 375.5 g | Bas [6]: 0% | Eos [6]: 0.8% | Fbg [6]: 232.6 mg/dL | Hb [6]: 14 g/dL | Ht [6]: 41.7% | MCHC [6]: 33.4% | MCV [6]: 63.4 fL | Mono [6]: 4.8% | Neu [6]: 9% | Plat [6]: 115.2 x10_4/uL | RBC [6]: 658 x10_4/ul | Ret [6]: 5.9% | WBC [6]: 129.4 x10_2/uL | Bas [7]: 0% | Eos [7]: 0.8% | Fbg [7]: 227.2 mg/dL | Hb [7]: 14.7 g/dL | Ht [7]: 44% | MCHC [7]: 33.4% | MCV [7]: 60.7 fL | Mono [7]: 2.8% | Neu [7]: 6% | Plat [7]: 121.9 x10_4/uL | RBC [7]: 726.2 x10_4/ul | Ret [7]: 3.5% | WBC [7]: 131.2 x10_2/uL | Bas [8]: 0% | Eos [8]: 1% | Fbg [8]: 225 mg/dL | Hb [8]: 15.6 g/dL | Ht [8]: 46.4% | MCHC [8]: 33.5% | MCV [8]: 56.7 fL | Mono [8]: 4.4% | Neu [8]: 7.6% | Plat [8]: 107.2 x10_4/uL | RBC [8]: 819 x10_4/ul | Ret [8]: 2% | WBC [8]: 119 x10_2/uL | KIDNEY_L [6]: 1.1 g | KIDNEY_R [6]: 1.1 g | KIDNEY_TOTAL [6]: 2.2 g | KIDNEY_L [7]: 1.2 g | KIDNEY_R [7]: 1.3 g | KIDNEY_TOTAL [7]: 2.5 g | KIDNEY_L [8]: 1.3 g | KIDNEY_R [8]: 1.3 g | KIDNEY_TOTAL [8]: 2.6 g | LIVER [6]: 12.2 g | LIVER [7]: 13.1 g | LIVER [8]: 14.5 g | ALP [6]: 835.8 IU/L | AST [6]: 65.4 IU/L | BUN [6]: 16.8 mg/dL | CRE [6]: 0.5 mg/dL | DBIL [6]: 0.016 mg/dL | GLC [6]: 193.4 mg/dL | IP [6]: 7.7 mg/dL | K [6]: 5.1 meq/L | LDH [6]: 96.6 IU/L | Na [6]: 138.8 meq/L | PL [6]: 156.2 mg/dL | RALB [6]: 3.8 g/dL | TBIL [6]: 0.3 mg/dL | TC [6]: 80.6 mg/dL | TG [6]: 120.4 mg/dL | TP [6]: 5.8 g/dL | gamma-GTP [6]: 1.8 IU/L | ALP [7]: 712.2 IU/L | AST [7]: 56.6 IU/L | BUN [7]: 18.6 mg/dL | CRE [7]: 0.5 mg/dL | DBIL [7]: 0.04 mg/dL | GLC [7]: 190.2 mg/dL | IP [7]: 7.7 mg/dL | K [7]: 4.9 meq/L | LDH [7]: 75.8 IU/L | Na [7]: 140 meq/L | PL [7]: 159.8 mg/dL | RALB [7]: 3.9 g/dL | TBIL [7]: 0.3 mg/dL | TC [7]: 77.4 mg/dL | TG [7]: 168.2 mg/dL | TP [7]: 6.1 g/dL | gamma-GTP [7]: 0.8 IU/L | ALP [8]: 548.6 IU/L | AST [8]: 59.4 IU/L | BUN [8]: 18.6 mg/dL | CRE [8]: 0.6 mg/dL | DBIL [8]: 0.016 mg/dL | GLC [8]: 187.8 mg/dL | IP [8]: 7.1 mg/dL | K [8]: 4.3 meq/L | LDH [8]: 84.8 IU/L | Na [8]: 141.2 meq/L | PL [8]: 146.8 mg/dL | RALB [8]: 4.1 g/dL | TBIL [8]: 0.3 mg/dL | TC [8]: 76.8 mg/dL | TG [8]: 121.4 mg/dL | TP [8]: 6.3 g/dL | gamma-GTP [8]: 1.6 IU/L
